Test: Example 3: phase 3 trial, enavogliflozin 0.3 mg vs dapagliflozin 10 mg once a day for 24 weeks added to metformin and gemigliptin in patients with type 2 diabetes (same endpoints, rescue drug)
Assay type: in vivo, human
Procedure: 1) when Metformin (≥1,000 mg/Day) was Administered at a Constant Dose for at Least 8 Weeks Prior to Pre-Visit (Pre-Screening) • Metformin (≥1,000 mg/day) and gemigliptin (50 mg/day) were co-administered during the 8-week stabilization period. […] 4) when Metformin (≥1,000 mg/Day) and Gemigliptin (50 mg/Day) were Co-Administered at Constant Doses for at Least 8 Weeks Prior to Pre-Visit (Prescreening) • Without a separate stabilization period, Pre-visit (pre-screening) was Visit 1 (screening).
Subjects who met the inclusion/exclusion criteria continued to receive metformin and gemigliptin while receiving a placebo of the clinical trial drug in a single-blind (subject-blinded) state for a 2-week run-in period.
Here, the randomized subjects were stratified according to the administration therapy (co-administration with two or less agents (one or two agents) or three or more agents) of a conventional hypoglycemic agent (before washout of another hypoglycemic agent) within 24 weeks prior to obtaining written informed consent and by an HbA1c value (<8% or ≥8%) at Visit 1 (screening) measured in the central laboratory.
The randomized subjects were administered two tablets of the clinical trial drug corresponding to each administration group once a day, and then visited the institution at weeks 6, 12, 18, and 24 during the 24-week administration period to conduct efficacy and safety assessments. In addition, during the clinical trial period, they were instructed to exercise regularly and control their diet without changing their daily life patterns.
• 1) Change in HbA1c at week 24 after administration of clinical trial drug compared to Visit 2 (randomization)
• 1) Change in HbA1c at each time point of weeks 6, 12, and 18 after administration of clinical trial drug compared to Visit 2 (randomization) • 2) Change in FPG at each time point of weeks 6, 12, 18, and 24 after administration of clinical trial drug compared to Visit 2 (randomization) • 3) Proportion of subjects achieving HbA1c<7% at each time point of weeks 6, 12, 18, and 24 after administration of clinical trial drug • 4) Proportion of subjects achieving HbA1c<6.5% at each time point of weeks 6, 12, 18, and 24 after administration of clinical trial drug • 5) Proportion of subjects achieving therapeutic response (HbA1c change (HbA1c at Visit 2—HbA1c at each evaluation time point)>0.5% or HbA1c<7% at each evaluation time point compared to Visit 2 (randomization)) at each time point of weeks 6, 12, 18, and 24 after administration of clinical trial drug • 6) Proportion of subjects achieving therapeutic response (HbA1c change (HbA1c at Visit 2—HbA1c at each evaluation time point)>0.7% or HbA1c<7% at each evaluation time point compared to Visit 2 (randomization)) at each time point of weeks 6, 12, 18, and 24 after administration of clinical trial drug • 7) Proportion of subjects achieving therapeutic response (HbA1c change (HbA1c at Visit 2—HbA1c at each evaluation time point)>1% or HbA1c<7% at each evaluation time point compared to Visit 2 (randomization)) at each time point of weeks 6, 12, 18, and 24 after administration of clinical trial drug

[1] = week 6, per-protocol set, enavogliflozin 0.3 mg, dapagliflozin 10 mg
[2] = week 12, modified per-protocol set 1, enavogliflozin 0.3 mg, dapagliflozin 10 mg
[3] = week 12, modified per-protocol set 2
[4] = week 12, modified per-protocol set 2, enavogliflozin 0.3 mg, dapagliflozin 10 mg
[5] = week 12, per-protocol set, enavogliflozin 0.3 mg, dapagliflozin 10 mg

CCOc1ccc(Cc2cc([C@@H]3O[C@H](CO)[C@@H](O)[C@H](O)[C@H]3O)ccc2Cl)cc1 [Dapagliflozin, reference compound]
HbA1c, Median [1]: 6.96%
Subjects achieving HbA1c target of <6.5%, (%) [1]: 15.57%
Subjects achieving HbA1c target of <7%, % [1]: 51.64%
body weight, Median [1]: 63.90 kg
Subjects achieving therapeutic glycemic response 1, % (week 6, per-protocol set, response 1 = HbA1c change >0.5% or HbA1c <7%, enavogliflozin 0.3 mg, dapagliflozin 10 mg): 81.97%
Subjects achieving therapeutic glycemic response 2, % (week 6, per-protocol set, response 2 = HbA1c change >0.7% or HbA1c <7%, enavogliflozin 0.3 mg, dapagliflozin 10 mg): 76.23%
Subjects achieving therapeutic glycemic response 3, % (week 6, per-protocol set, response 3 = HbA1c change >1% or HbA1c <7%, enavogliflozin 0.3 mg, dapagliflozin 10 mg): 63.93%
FPG change from baseline, LS mean (SE) (week 12): −24.42(1.50) mg/dL
HDL-C change from baseline, LS mean (SE) (week 12): 2.84(0.60) mg/dL
HOMA-β change from baseline, LS mean (SE) (week 12): 5.23(1.90)
HbA1c change from baseline, LS mean (SE) (week 12): −0.83(0.04) % p
LDL-C change from baseline, LS mean (SE) (week 12): 2.71(1.75) mg/dL
UACR change from baseline, LS mean (SE) (week 12): −11.76(4.47) g/kg
UGCR change from baseline, LS mean (SE) (week 12): 44.84(2.02) mg/mg
adiponectin change from baseline, LS mean (SE) (week 12): 0.70(0.33) μg/mL
body weight change from baseline, LS mean (SE) (week 12): −2.71(0.19) kg
diastolic blood pressure change from baseline, LS mean (SE) (week 12): −2.26(0.66) mmHg
fasting C-peptide change from baseline, LS mean (SE) (week 12): −0.07(0.02) ng/ml
leptin change from baseline, LS mean (SE) (week 12): −1.69(0.47) ng/ml
systolic blood pressure change from baseline, LS mean (SE) (week 12): −5.06(0.85) mmHg
total cholesterol change from baseline, LS mean (SE) (week 12): 5.40(1.98) mg/dL
triglyceride change from baseline, LS mean (SE) (week 12): −12.02(5.12) mg/dL
Change from baseline in HDL-C, ANCOVA LS mean [2]: 2.84 mg/dL
Change from baseline in HDL-C, Mean [2]: 2.65 mg/dL
Change from baseline in HDL-C, Median [2]: 2.00 mg/dL
Change from baseline in LDL-C, ANCOVA LS mean [2]: 2.71 mg/dL
Change from baseline in LDL-C, Mean [2]: 2.45 mg/dL
Change from baseline in LDL-C, Median [2]: 4.00 mg/dL
Change from baseline in total cholesterol, ANCOVA LS mean [2]: 5.40 mg/dL
Change from baseline in total cholesterol, Mean [2]: 4.61 mg/dL
Change from baseline in total cholesterol, Median [2]: 6.00 mg/dL
Change from baseline in triglycerides, ANCOVA LS mean [2]: 12.02 mg/dL
Change from baseline in triglycerides, Mean [2]: -16.03 mg/dL
Change from baseline in triglycerides, Median [2]: -6.00 mg/dL
Fasting HDL-C, Mean [2]: 50.08 mg/dL
Fasting HDL-C, Median [2]: 49.00 mg/dL
Fasting LDL-C, Mean [2]: 79.86 mg/dL
Fasting LDL-C, Median [2]: 72.50 mg/dL
Fasting total cholesterol, Mean [2]: 148.41 mg/dL
Fasting triglycerides, Mean [2]: 116.46 mg/dL
Fasting triglycerides, Median [2]: 104.50 mg/dL
fasting Total cholesterol, Median [2]: 140.50 mg/dL
Change from baseline in diastolic blood pressure, ANCOVA LS mean [3]: −2.26 mmHg
Change from baseline in diastolic blood pressure, Mean [3]: −1.88 mmHg
Change from baseline in diastolic blood pressure, Median [3]: −1.00 mmHg
Diastolic blood pressure, Mean [3]: 71.99 mmHg
Diastolic blood pressure, Median [3]: 72.00 mmHg
Change from baseline in systolic blood pressure, ANCOVA LS mean [4]: −5.06 mmHg
Change from baseline in systolic blood pressure, Mean [4]: −4.43 mmHg
Change from baseline in systolic blood pressure, Median [4]: −4.00 mmHg
Systolic blood pressure, Mean [4]: 119.51 mmHg
Systolic blood pressure, Median [4]: 120.00 mmHg
Adiponectin, Mean (week 12, per-protocol set): 6.97 µg/mL
Adiponectin, Median (week 12, per-protocol set): 6.27 µg/mL
Change from baseline in HOMA-IR, ANCOVA LS mean (week 12, per-protocol set): −1.05
Change from baseline in HOMA-IR, Mean (week 12, per-protocol set): −1.06
Change from baseline in HOMA-IR, Median (week 12, per-protocol set): −0.76
Change from baseline in HOMA-β, ANCOVA LS mean (week 12, per-protocol set): 5.23
Change from baseline in HOMA-β, Mean (week 12, per-protocol set): 4.70
Change from baseline in HOMA-β, Median (week 12, per-protocol set): 3.50
Change from baseline in UACR, ANCOVA LS mean (week 12, per-protocol set): -11.76 g/kg
Change from baseline in UACR, Mean (week 12, per-protocol set): -7.42 g/kg
Change from baseline in UACR, Median (week 12, per-protocol set): 0.20 g/kg
Change from baseline in UGCR, ANCOVA LS mean (week 12, per-protocol set): 44.84 mg/mg
Change from baseline in UGCR, Mean (week 12, per-protocol set): 43.19 mg/mg
Change from baseline in UGCR, Median (week 12, per-protocol set): 41.69 mg/mg
Change from baseline in adiponectin, ANCOVA LS mean (week 12, per-protocol set): 0.70 µg/mL
Change from baseline in adiponectin, Mean (week 12, per-protocol set): 0.63 µg/mL
Change from baseline in adiponectin, Median (week 12, per-protocol set): 0.43 µg/mL
Change from baseline in leptin, ANCOVA LS mean (week 12, per-protocol set): -1.69 ng/mL
Change from baseline in leptin, Mean (week 12, per-protocol set): -1.82 ng/mL
Change from baseline in leptin, Median (week 12, per-protocol set): -0.96 ng/mL
HOMA-IR (insulin resistance), Mean (week 12, per-protocol set): 1.80
HOMA-IR (insulin resistance), Median (week 12, per-protocol set): 1.55
HOMA-β (beta-cell function), Mean (week 12, per-protocol set): 45.17
HOMA-β (beta-cell function), Median (week 12, per-protocol set): 38.20
Leptin, Mean (week 12, per-protocol set): 9.03 ng/mL
Leptin, Median (week 12, per-protocol set): 7.69 ng/mL
UACR, Mean (week 12, per-protocol set): 27.28 g/kg
UACR, Median (week 12, per-protocol set): 11.80 g/kg
UGCR, Mean (week 12, per-protocol set): 44.72 mg/mg
UGCR, Median (week 12, per-protocol set): 41.80 mg/mg
Body weight, Mean [5]: 64.64 kg
Change from baseline in FPG, ANCOVA LS mean [5]: -24.42 mg/dL
Change from baseline in FPG, Mean [5]: -25.28 mg/dL
Change from baseline in FPG, Median [5]: -20.00 mg/dL
Change from baseline in HbA1c, ANCOVA LS mean [5]: −0.83 % p
Change from baseline in HbA1c, Mean [5]: −0.87 % p
Change from baseline in HbA1c, Median [5]: −0.85 % p
Change from baseline in body weight, ANCOVA LS mean [5]: -2.71 kg
Change from baseline in body weight, Mean [5]: -2.58 kg
Change from baseline in body weight, Median [5]: -2.50 kg
Change from baseline in fasting C-peptide, ANCOVA LS mean [5]: -0.07 ng/mL
Change from baseline in fasting C-peptide, Mean [5]: -0.06 ng/mL
Change from baseline in fasting C-peptide, Median [5]: -0.03 ng/mL
FPG, Mean [5]: 115.24 mg/dL
FPG, Median [5]: 112.00 mg/dL
Fasting C-peptide, Mean [5]: 0.63 ng/mL
Fasting C-peptide, Median [5]: 0.60 ng/mL
HbA1c, Mean [5]: 6.96%
HbA1c, Median [5]: 6.84%
Subjects achieving HbA1c target of <6.5%, (%) [5]: 17.07%

— patent US20260130933A1, “PHARMACEUTICAL COMPOSITION FOR PREVENTION OR TREATMENT OF NEPHROPATHY AND/OR DIABETES MELLITUS, COMPRISING ENAVOGLIFLOZIN” (DAEWOONG PHARMACEUTICAL CO., LTD., priority 2022, published 2026)
